Source: patent publication US20200079819A1, “Use of a Vaccine Targeting a Cryptic Tert Epitope, for Treating Lung Cancer in a HLA-A*0201-Positive Never-Smoker or Light-Former Smoker Patient” (Vaxon Biotech, priority 2017, published 2020)
No end group written: not given here.

System: HLA-A*0201 positive patients with NSCLC expressing TERT
Assay: Vx-001-201 randomized double blind phase IIb clinical trial (OS, TTF, 12 months survival)
Assay type: in vivo, human
Conditions: for OS (months) / 12 months OS / 12 months OS (%) / Median TTF (months) / Median survival (months): Vx-001 arm; for HR (OS) / HR (TTF): Vx-001 vs placebo
Excerpt: The Vx-001-201 study is a randomized, double blind multicenter study done in 70 centers in France, Germany, Spain, Italy, Greece, Poland, Romania and Czech Republic. Key eligibility criteria were a) non small cell lung cancer (NSCLC), b) stage IV or recurrent stage I-III, c) disease control after platinum based first line chemotherapy according to RECIST 1.1 criteria, d) HLA-A*0201 positivity, e) tumors expressing TElomerase Reverse Transcriptase (TERT), f) ECOG 0 or 1 g) absence of brain metastasis.
a) Principal endpoint: overall survival (OS) measured from randomization
b) Secondary endpoints: • Time to Treatment Failure (TTF) measured from randomization • OS at 12 months
Patients who fulfilled all inclusion criteria were randomized within 4 weeks after the end of first line chemotherapy.
The vaccination protocol consisted in six vaccinations at three weeks interval. The optimized Vx-001/TERT572Y was used in the first two vaccinations and the native Vx-001/TERT572 in the following four vaccinations. Patients who continued controlling their disease after the sixth vaccination received boost vaccination with the Vx-001/TERT572 every three months. Vaccination was stopped at disease progression (FIG. 1).
The primary and secondary endpoints were analysed in the Full Analysis Set composed of all patients who fulfilled the […] five main criteria a) NSCLC, b) stage IV or recurrent stage I-III, and c) disease control after first line chemotherapy, d) HLA-A*0201 positivity and e) TERT expressing tumors.
We used the Kaplan-Meier method to estimate OS and TTF in each arm and a Cox proportional hazards regression model to estimate Hazard Ratio (HR) relating OS and TTF to the treatment effect.

[1] = never-smokers and light-smokers (≤25 years, stopped or not), SQ (n = 14)
[2] = never-smokers and light-smokers (≤25 years, stopped or not), Stage IV (n = 51)
[3] = never-smokers and light-smokers (≤25 years, stopped or not), natural immunity No (n = 37)
[4] = never-smokers and light-smokers (≤25 years, stopped or not), natural immunity Yes (n = 15)
[5] = never-smokers and light-smokers (≤25 years, stopped or not), response to treatment OS (n = 28)
[6] = never-smokers and light-smokers (≤25 years, stopped or not), response to treatment SD (n = 32)
[7] = never-smokers or former light-smokers (≤25 years), <65 years (n = 24)
[8] = never-smokers or former light-smokers (≤25 years), >65 years (n = 31)
[9] = never-smokers or former light-smokers (≤25 years), CARBO (n = 37)
[10] = never-smokers or former light-smokers (≤25 years), CDDP (n = 18)
[11] = never-smokers or former light-smokers (≤25 years), Female (n = 23)
[12] = never-smokers or former light-smokers (≤25 years), MH + NSQ (n = 42)
[13] = never-smokers or former light-smokers (≤25 years), Male (n = 32)
[14] = never-smokers or former light-smokers (≤25 years), SQ (n = 13)
[15] = never-smokers or former light-smokers (≤25 years), natural immunity No (n = 33)
[16] = never-smokers or former light-smokers (≤25 years), natural immunity Yes (n = 14)
[17] = never-smokers or former light-smokers (≤25 years), response to chemotherapy OR (n = 26)
[18] = never-smokers or former light-smokers (≤25 years), response to chemotherapy SD (n = 29)
[19] = never-smokers or former light-smokers (≤25 years), stable disease SD after first-line chemotherapy (n = 29)

## Vx-001: vaccine composed of two nine-amino-acid peptides, TERT572 (SEQ ID No: 1) and TERT572Y (SEQ ID No: 2), administered separately with adjuvant Montanide ISA51 VG (chain 1 RLFFYRKSV; chain 2 YLFFYRKSV; not fully specified)
[1]
  OS (months): 14.1 months
  HR (OS): 0.81
[2]
  12 months OS: 69.2%
  OS (months): 16.2 months
  HR (OS): 0.44
[3]
  12 months OS: 83.0%
  OS (months): 20.7 months
  HR (OS): 0.27
[4]
  12 months OS: 66.0%
  OS (months): 15.3 months
  HR (OS): 0.87
[5]
  12 months OS: 63.6%
  OS (months): 15.3 months
  HR (OS): 0.91
[6]
  12 months OS: 75.0%
  OS (months): 24.7 months
  HR (OS): 0.34
[7]
  12 months OS (%): 77%
  Median TTF (months): 2.9 months
  Median survival (months): 20.2 months
  HR (OS): 0.46
  HR (TTF): 1.07
[8]
  12 months OS (%): 69.2%
  Median TTF (months): 4.6 months
  Median survival (months): 15.3 months
  HR (OS): 0.64
  HR (TTF): 0.71
[9]
  12 months OS (%): 64.7%
  Median TTF (months): 2.9 months
  Median survival (months): 15.3 months
  HR (OS): 0.63
  HR (TTF): 0.90
[10]
  12 months OS (%): 88.8%
  Median TTF (months): 5.6 months
  Median survival (months): 24.7 months
  HR (OS): 0.50
  HR (TTF): 0.87
[11]
  12 months OS (%): 66.6%
  Median TTF (months): 4.2 months
  Median survival (months): 13.3 months
  HR (OS): 0.89
  HR (TTF): 0.98
[12]
  12 months OS (%): 73.7%
  Median TTF (months): 4.2 months
  Median survival (months): 16.2 months
  HR (OS): 0.53
  HR (TTF): 0.89
[13]
  12 months OS (%): 78.6%
  Median TTF (months): 2.9 months
  Median survival (months): 24.7 months
  HR (TTF): 0.82
[14]
  12 months OS (%): 71.4%
  Median TTF (months): 2.9 months
  Median survival (months): 14.1 months
  HR (OS): 0.89
  HR (TTF): 0.81
[15]
  12 months OS (%): 82.3%
  Median TTF (months): 5.6 months
  Median survival (months): 20.7 months
  HR (TTF): 0.43
[16]
  12 months OS (%): 66.6%
  Median TTF (months): 2.4 months
  Median survival (months): 15.3 months
  HR (OS): 0.90
  HR (TTF): 1.86
[17]
  12 months OS (%): 72.7%
  Median TTF (months): 2.8 months
  Median survival (months): 15.3 months
  HR (OS): 0.96
  HR (TTF): 1.33
[18]
  Median TTF (months): 3.6 months
  HR (TTF): 0.58
[19]
  12 months OS (%): 73.3%
  Median survival (months): 24.7 months
never/light-smokers (≤25 years, stopped or not), Table 7 population
  Effect on OS (in words): significantly prolonged OS
